Measured values reported in PubChem BioAssay (NCI).
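Five concentrations, 48 hours, 96-well plates. At the GI50, growth is halved. At the TGI there is no net growth.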

What was measured:
Assay in all cases: NCI anticancer screen, dose series, 48 h
[1] = test system: A549 NSCLC
[2] = test system: UACC-62 melanoma
[3] = test system: K-562 leukemia
[4] = test system: NCI-H460 lung
[5] = test system: MALME-3M melanoma
[6] = test system: RPMI-8226 leukemia
[7] = test system: SF-268 CNS
[8] = test system: MDA-MB-435
[9] = test system: A498 renal
[10] = test system: T-47D breast

| SMILES | TGI [1] | TGI [2] | TGI [3] | TGI [4] | TGI [5] | TGI [6] | GI50 [1] | GI50 [2] | GI50 [4] | GI50 [5] | GI50 [7] | TGI [7] | GI50 [8] | TGI [8] | GI50 [9] | TGI [9] | GI50 [10] | TGI [10] | GI50 [6] | GI50 [3] |
| --- | --- | --- | --- | --- | --- | --- | --- | --- | --- | --- | --- | --- | --- | --- | --- | --- | --- | --- | --- | --- |
| CCOC(=O)CCn1cnc(N)n1 | > 100 µM | > 100 µM | > 100 µM | > 100 µM | > 100 µM | > 100 µM |  |  |  |  |  |  |  |  |  |  |  |  |  |  |
| CC(=O)/C=C/c1ccc(N(CCO)Cc2ccc(C(C)(C)C)cc2)cc1 | 182 µM | 176 µM |  | 144 µM | 208 µM | 72.5 µM | 56.5 µM | 46.6 µM | 39.9 µM | 65.3 µM | 59 µM | 200 µM | 64 µM | 196 µM | 113 µM | 236 µM | 31 µM | 161 µM | 28.2 µM |  |
| O=C1CCc2ccc(O)c(c2)Oc2ccc(cc2)[C@@H]2O[C@@H]2CO1 | > 100 µM | > 100 µM | > 100 µM |  | 62.1 µM | > 100 µM |  |  |  |  |  |  |  |  |  | 70.7 µM |  |  |  |  |
| Cc1ccc(/C(=C/C=C(C#N)C#N)Sc2nc3ccccc3s2)cc1 | 45.5 µM | 6.22 µM | > 100 µM | 75.3 µM | 6.57 µM |  | 19.8 µM | 2.6 µM | 18.3 µM | 2.52 µM | 5.81 µM | 22.1 µM | 3.54 µM | 13.1 µM | 20.9 µM | 35.9 µM | 5.2 µM | 35.7 µM |  | 6.25 µM |
| N#CC1=C(c2ccccc2)OC2(N)OC(c3ccccc3)=C(C#N)C12C#N (configuration not stated) | > 100 µM | > 100 µM | > 100 µM | > 100 µM | > 100 µM | > 100 µM |  |  |  |  |  | > 100 µM |  |  |  | > 100 µM |  |  |  |  |
| CC[P+]1(c2ccccc2)CCCCC1 | > 100 µM | > 100 µM | > 100 µM | > 100 µM | > 100 µM | > 100 µM |  |  |  |  |  | > 100 µM |  |  |  |  |  |  |  |  |
| CCCCNCCCCCNc1cc(OC)cc2cccnc12 | 51.3 µM | 40.3 µM | 44.8 µM | > 100 µM | 42.9 µM | 39.8 µM | 20.7 µM | 19.9 µM | 89.4 µM | 18 µM | > 100 µM | > 100 µM | 19.8 µM | 41.4 µM | 16.2 µM | 38 µM |  |  | 15.5 µM | 20.4 µM |
| C=CCN1C(=O)[C@]2(SC1=S)[C@H](c1cccc(Cl)c1)CN(C)[C@]21C(=O)NC2C=CC(Cl)=C[C@H]21 (some centres not stated) | 12.9 µM | 19.1 µM |  | 13.6 µM | 12.7 µM | 4.97 µM | 3.3 µM | 3.7 µM | 3.62 µM | 2.88 µM | 6.77 µM | 24.6 µM | 5.9 µM | 21.5 µM | 2.7 µM | 7.48 µM | 2.84 µM | 14.7 µM | 1.64 µM |  |
| Cc1ccc(NC(=O)CCC(=O)C2Cc3ccccc3C2=O)cc1C (configuration not stated) | > 100 µM | > 100 µM | > 100 µM | > 100 µM | > 100 µM | > 100 µM |  |  |  |  |  | > 100 µM |  |  |  | > 100 µM |  |  |  |  |
